Literature values in article PMC6105164 (Cancer Chemotherapy and Pharmacology, 2018).

Key:
prenylation of RAS = test system: prenylation of RAS; parameters: method as in PMID 22020205, PMID 15084616, PMID 15459217; details: cited from earlier work
[1] = test system: patients with KRAS mutations; parameters: method as in PMID 24024839, PMID 18316791, PMID 23182985; details: cited from earlier work

Compound | activity in clinical trials (prenylation of RAS) | efficacy [1]
Cn1cncc1[C@@](N)(c1ccc(Cl)cc1)c1ccc2c(c1)c(-c1cccc(Cl)c1)cc(=O)n2C [tipifarnib] | a little activity | 
panitumumab: EGF receptor inhibitor |  | a little efficacy
